Measured values taken from the NIST ThermoML archive (doi:10.1021/acs.jced.8b00537).

Assay: xn = mol fraction of the nth substance listed
Settings: 100 kPa, Liquid; for mass density: Vibrating tube method; for viscosity: Capillary tube (Ostwald / Ubbelohde) method; for speed of sound: Frequency=3 MHz, Single path-length method

C=CCn1cc[n+](C)c1.O=S(=O)([N-]S(=O)(=O)C(F)(F)F)C(F)(F)F + CCCO
Settings	mass density [kg/m3]	speed of sound [m/s]	viscosity [mPa·s]
318.15 K, x1 = 0.5003	1326	–	–
318.15 K, x1 = 0.6007	1369	–	–
318.15 K, x1 = 0.6971	1403	–	–
318.15 K, x1 = 0.8024	1434	–	–
318.15 K, x1 = 0.8974	1457	–	–
318.15 K, x1 = 1	1479	–	–
323.15 K, x1 = 0.04962	889	1113	1.421
323.15 K, x1 = 0.1003	977	1108	1.813
323.15 K, x1 = 0.1995	1107	1115.1	2.632
323.15 K, x1 = 0.2987	1199	1127.5	3.453
323.15 K, x1 = 0.399	1268	1138.3	4.402
323.15 K, x1 = 0.5003	1321	1150.3	5.384
323.15 K, x1 = 0.6007	1364	1158.2	6.806
323.15 K, x1 = 0.6971	1398	1166.3	8.132
323.15 K, x1 = 0.8024	1429	1174.3	9.945
323.15 K, x1 = 0.8974	1452	1179.6	12.12
323.15 K, x1 = 1	1474	1185.2	15.19
328.15 K, x1 = 0.04962	884	1097.9	1.284
328.15 K, x1 = 0.1003	973	1094	1.635
328.15 K, x1 = 0.1995	1102	1102.2	2.37
328.15 K, x1 = 0.2987	1194	1115.3	3.106
328.15 K, x1 = 0.399	1263	1126.6	3.956
328.15 K, x1 = 0.5003	1316	1138.8	4.83
328.15 K, x1 = 0.6007	1359	1147	6.09
328.15 K, x1 = 0.6971	1393	1155.3	7.262
328.15 K, x1 = 0.8024	1424	1163.5	8.834
328.15 K, x1 = 0.8974	1447	1168.9	10.73
328.15 K, x1 = 1	1469	1174.7	13.23
333.15 K, x1 = 0.04962	880	1082.7	1.166
333.15 K, x1 = 0.1003	968	1080	1.48
333.15 K, x1 = 0.1995	1097	1089.5	2.146
333.15 K, x1 = 0.2987	1189	1103.1	2.812
333.15 K, x1 = 0.399	1258	1114.9	3.573
333.15 K, x1 = 0.5003	1312	1127.5	4.36
333.15 K, x1 = 0.6007	1354	1135.9	5.485
333.15 K, x1 = 0.6971	1388	1144.5	6.518
333.15 K, x1 = 0.8024	1419	1152.8	7.905
333.15 K, x1 = 0.8974	1442	1158.4	9.475
333.15 K, x1 = 1	1465	1164.2	11.62
338.15 K, x1 = 0.04962	875	1067.5	1.061
338.15 K, x1 = 0.1003	963	1065.9	1.347
338.15 K, x1 = 0.1995	1092	1076.7	1.953
338.15 K, x1 = 0.2987	1184	1091	2.558
338.15 K, x1 = 0.399	1253	1103.4	3.252
338.15 K, x1 = 0.5003	1307	1116.2	3.957
338.15 K, x1 = 0.6007	1349	1124.9	4.964
338.15 K, x1 = 0.6971	1383	1133.8	5.889
338.15 K, x1 = 0.8024	1414	1142.2	7.111
338.15 K, x1 = 0.8974	1437	1147.9	8.498
338.15 K, x1 = 1	1460	1153.8	10.28
343.15 K, x1 = 0.04962	870	1052.3	0.971
343.15 K, x1 = 0.1003	958	1052.2	1.23
343.15 K, x1 = 0.1995	1088	1064.2	1.786
343.15 K, x1 = 0.2987	1179	1078.9	2.342
343.15 K, x1 = 0.399	1248	1092.1	2.974
343.15 K, x1 = 0.5003	1302	1105	3.611
343.15 K, x1 = 0.6007	1345	1114	4.521
343.15 K, x1 = 0.6971	1378	1123.3	5.348
343.15 K, x1 = 0.8024	1409	1131.9	6.435
343.15 K, x1 = 0.8974	1433	1137.8	7.661
343.15 K, x1 = 1	1455	1143.5	9.125
